This series is described as follows: Human HepG2 cell viability assay in 384 well format. The class given is toxicity, cell-based. Set-up: dose 125 nL, time 70.5 hour; cytotoxicity at 70.5 h: concentration not given beside the values. Particulars: HepG2 cells, read-out: Inhibition.

Molecules are shown by their SMILES.

Regarding `Cc1noc(C(C)C)c1C(=O)NCC(c1ccccc1)N(C)C` (stereo unspecified), the cytotoxicity at 70.5 h is -8.37%.

`OC(CN1CCC(c2ccn[nH]2)CC1)c1ccccc1F` (stereo unspecified): the cytotoxicity at 70.5 h was -4.73%.

Take `Cc1ccnn1-c1ccc(C(=O)N2CCCC(n3ccnc3)C2)cc1` (stereo unspecified): the cytotoxicity at 70.5 h is -7.39%.

Regarding `CC(C)c1n[nH]c(C(=O)NC(C)c2ccncc2)c1Br` (stereo unspecified), the cytotoxicity at 70.5 h was -2.63%.

Turning to `CN1CC(C(=O)Nc2ccc(OCC(F)(F)C(F)F)nc2)CC1=O` (stereo unspecified), the cytotoxicity at 70.5 h is -7.73%.

On to `Cc1cccc(NC(=O)c2[nH]nc(C(C)C)c2Br)n1`, for which the cytotoxicity at 70.5 h was found to be 23.8%.

`O=C(CCc1ccsc1)N1CCCC(n2cncn2)C1` (stereo unspecified): the cytotoxicity at 70.5 h was -11.8%.

On to `COc1ccc(CCC(=O)N2CCCC(n3cncn3)C2)cc1` (stereo unspecified), for which the cytotoxicity at 70.5 h was -7.91%.

`CS(=O)(=O)c1ccc(C(=O)N2CCCC(n3ccnc3)C2)cc1` (stereo unspecified): the cytotoxicity at 70.5 h was -10.2%.

Regarding `N#Cc1ccc(CCC(=O)N2CCCC(n3cncn3)C2)cc1` (stereo unspecified), the cytotoxicity at 70.5 h was -8.59%.

Regarding `Cc1cc(C2CCCN(CCCS(N)(=O)=O)C2)n[nH]1` (stereo unspecified), the cytotoxicity at 70.5 h is -5.94%.

As for `Cc1cc(NC(=O)NCC(c2ccc(C)o2)N2CCOCC2)n(C)n1` (stereo unspecified), the cytotoxicity at 70.5 h came out at 21%.

`Cc1[nH]ncc1C(=O)N1CCCC1c1noc(C2CC2)n1` (stereo unspecified): the cytotoxicity at 70.5 h is 19.4%.

In the case of `Cc1cnn(CC2CCCN2Cc2nc(C)c3ccccc3n2)c1` (stereo unspecified), the cytotoxicity at 70.5 h was determined as 1.46%.

`CCN1CCN(C(=O)c2cccn2Cc2ccccc2)CC1`: the cytotoxicity at 70.5 h is -0.982%.

With `Cc1cnn(CC2CCCCN2Cc2nc(C)c3ccccc3n2)c1` (stereo unspecified), the cytotoxicity at 70.5 h is -1.81%.

As to `Cc1cnn(CC2CCCN2Cc2nc3ccccc3c(=O)[nH]2)c1` (stereo unspecified), the cytotoxicity at 70.5 h is -7.22%.

For the compound `Fc1cccc(-n2ccc(CN3CCCC3Cn3cncn3)n2)c1` (stereo unspecified), the cytotoxicity at 70.5 h was -9.03%.

As to `Cc1cnn(CC2CCCN2C(=O)c2n[nH]c3ccccc23)c1` (stereo unspecified), the cytotoxicity at 70.5 h was -6.9%.

As to `Cc1cccc(C(=O)N2CCCC(c3noc(C)n3)C2)n1` (stereo unspecified), the cytotoxicity at 70.5 h is -1.99%.

Take `CCc1c(C(=O)NCC2CCS(=O)(=O)C2)cnn1-c1ccccc1` (stereo unspecified): the cytotoxicity at 70.5 h is -4.41%.

Regarding `CC(=O)N1CCN(C(=O)CCCc2nnc(-c3ccccc3)o2)CC1`, the cytotoxicity at 70.5 h was -2.32%.

Take `Cc1ccc(-n2ncc(C(=O)NCC3CCS(=O)(=O)C3)c2C)cc1` (stereo unspecified): the cytotoxicity at 70.5 h was -4.72%.

Consider `Cc1cc(CN2CCN(C(=O)NCc3ccco3)CC2)no1`, for which the cytotoxicity at 70.5 h stood at 18.9%.

In the case of `CCc1ccc(CNC(=O)N2CCN(Cc3cc(C)on3)CC2)s1`, the cytotoxicity at 70.5 h is -4.93%.

On to `CC(C)c1nc(CN2CCC(c3ccnn3CCO)CC2)no1`, for which the cytotoxicity at 70.5 h worked out at 19.5%.

Take `OCCn1nccc1C1CCN(Cc2nc(C3CC3)no2)CC1`: the cytotoxicity at 70.5 h was -1.33%.

In the case of `O=C(CCc1nnc(-c2ccccc2)o1)N1CCN(CC2CC2)CC1`, the cytotoxicity at 70.5 h was determined as 1.86%.

Consider `O=C(Cc1n[nH]c2ccccc12)N1CCCC1Cn1cccn1` (stereo unspecified), for which the cytotoxicity at 70.5 h worked out at 0.964%.

On to `Fc1cccc(-c2nc(CN3CCCC(Cn4cncn4)C3)co2)c1` (stereo unspecified), for which the cytotoxicity at 70.5 h came to 16.1%.

As for `Cc1nsc2ncc(C(=O)N3CCCC3c3cnn(C)c3)cc12` (stereo unspecified), the cytotoxicity at 70.5 h was -0.553%.

Regarding `O=c1[nH]c(CCN2CCCCC2Cn2cccn2)nc2ccccc12` (stereo unspecified), the cytotoxicity at 70.5 h was -1.7%.

As to `CCc1nc(C2CCCN(C(=O)c3cc(C(C)C)[nH]n3)C2)no1` (stereo unspecified), the cytotoxicity at 70.5 h is -3.59%.

For the compound `Cc1nccn1CC1CCCN1S(=O)(=O)Cc1ccc(F)cc1` (stereo unspecified), the cytotoxicity at 70.5 h is -0.149%.

`Cc1nc(C2CCCN(C(=O)c3ccc(N4CCCC4)nn3)C2)no1` (stereo unspecified): the cytotoxicity at 70.5 h was determined as 0.493%.

Turning to `Cc1nc(C2CCCN(C(=O)c3ccc(Cl)cn3)C2)no1` (stereo unspecified), the cytotoxicity at 70.5 h is -5.54%.

Turning to `Cc1cc(C(=O)N2CCCC2c2noc(C)n2)[nH]n1` (stereo unspecified), the cytotoxicity at 70.5 h stood at 1.6%.

For the compound `Cn1cc(C(=O)N2CCCC2c2noc(C3CC3)n2)c2ccccc21` (stereo unspecified), the cytotoxicity at 70.5 h is -3.41%.

On to `c1ccc(Cn2cc(CNCC3CNc4ccnn4C3)cn2)cc1` (stereo unspecified), for which the cytotoxicity at 70.5 h came to 32.4%.

For `Cc1cccc(-c2nc(CN3CCc4cncnc4C3)no2)c1`, the cytotoxicity at 70.5 h is -4.67%.

`O=C(c1ccn(-c2cccc(Cl)c2)n1)N1CCN(CCO)CC1`: the cytotoxicity at 70.5 h was 0.676%.

With `CC(=O)Nc1nc(C(=O)N2CCCC2c2noc(C3CC3)n2)cs1` (stereo unspecified), the cytotoxicity at 70.5 h is -3.64%.

As to `c1cc(CNCC2CNc3ccnn3C2)cc(Cn2cccn2)c1` (stereo unspecified), the cytotoxicity at 70.5 h was determined as 4.46%.

`CCc1nc(C2CCCN2C(=O)c2csc(NC(C)=O)n2)no1` (stereo unspecified): the cytotoxicity at 70.5 h was -1.48%.

For the compound `CC(C)Oc1ncccc1CNC(=O)N1CCCC1c1ccsc1` (stereo unspecified), the cytotoxicity at 70.5 h was -0.144%.

`Cc1ncsc1C(=O)NC1CCN(Cc2ccc(C(N)=O)cc2)CC1`: the cytotoxicity at 70.5 h was determined as 1.08%.

As for `Cc1cc2n(n1)CC(CNCc1ccccc1Cn1cccn1)CN2` (stereo unspecified), the cytotoxicity at 70.5 h amounted to 4.35%.

On to `OCc1ccccc1CNCC1CNc2ccnn2C1` (stereo unspecified), for which the cytotoxicity at 70.5 h was -1.22%.

Take `N#Cc1ccc(OCCN2CCc3cncnc3C2)cc1`: the cytotoxicity at 70.5 h turned out to be 0.4%.

In the case of `Cc1nnc2n1CCN(CCS(=O)(=O)c1ccc(Cl)cc1)C2`, the cytotoxicity at 70.5 h was 2.97%.

As for `CC(C)(O)CN1CCN(C(=O)c2cccc(CC#N)c2)CC1`, the cytotoxicity at 70.5 h worked out at 1.57%.

`CC(C)c1nnc(CN2CCN(CC(O)c3ccccc3)CC2)o1` (stereo unspecified): the cytotoxicity at 70.5 h was -0.811%.

On to `O=C(c1cc2cc(F)ccc2[nH]1)N1CCCCC1Cn1cccn1` (stereo unspecified), for which the cytotoxicity at 70.5 h was -0.801%.

For `CC(O)CN1CCN(C(=O)c2ccn(-c3ccc(F)cc3)n2)CC1` (stereo unspecified), the cytotoxicity at 70.5 h is -3.45%.

For `CC(C)c1nnc2n1CCN(CCS(=O)(=O)c1ccccc1)C2`, the cytotoxicity at 70.5 h is -2.01%.

With `CC(C)(C(N)=O)N1CCN(C(=O)c2ccn(-c3cccc(Cl)c3)n2)CC1`, the cytotoxicity at 70.5 h was -0.38%.

With `Cc1cc(NC(=O)CN2CCc3cnc(C(C)C)nc3C2)on1`, the cytotoxicity at 70.5 h was -1.61%.

`Cc1ccc(-c2nc(CN3CCc4cnc(C)nc4C3)no2)cc1`: the cytotoxicity at 70.5 h came to 0.992%.

For `CCc1nc(CN2CCN(C(=O)N3CCCCC3)CC2)cs1`, the cytotoxicity at 70.5 h was 21.4%.

In the case of `CCOC(C)C(=O)N1CCCN(Cc2csc(CC)n2)CC1` (stereo unspecified), the cytotoxicity at 70.5 h turned out to be 22.4%.

In the case of `CCc1nc(CN2CCCN(C(=O)CC(C)OC)CC2)cs1` (stereo unspecified), the cytotoxicity at 70.5 h was 51.7%.

As for `CN(Cc1cccnc1)C(=O)NC1CCN(Cc2ccccn2)CC1`, the cytotoxicity at 70.5 h was 0.886%.

Take `CC(c1ccc(F)cc1F)N1CCN(Cc2nccn2C)CC1` (stereo unspecified): the cytotoxicity at 70.5 h is -0.0589%.

For `CC(C)n1ccc(CN2CCOC(CNc3cccnn3)C2)n1` (stereo unspecified), the cytotoxicity at 70.5 h is 3.22%.

As to `CC(C)(C)c1noc(CCCC(=O)NCC2CCS(=O)(=O)C2)n1` (stereo unspecified), the cytotoxicity at 70.5 h worked out at 0.495%.

On to `CC(C)c1noc(CCC(=O)NCC2CC2)n1`, for which the cytotoxicity at 70.5 h worked out at 23.5%.

In the case of `Cc1nc2cc(C(=O)N3CCCC(n4cncn4)C3)ccc2n1C` (stereo unspecified), the cytotoxicity at 70.5 h is 22.7%.

Consider `Cc1cc(C)cc(OCCC(=O)N2CCCC(n3cncn3)C2)c1` (stereo unspecified), for which the cytotoxicity at 70.5 h was -15.5%.

Regarding `COc1cc(C(=O)NS(=O)(=O)c2cccc(C#N)c2)cc(Cl)c1OC`, the cytotoxicity at 70.5 h was -8.04%.

`Cc1cnc(CN2CCCC(c3cc(C(N)=O)[nH]n3)C2)o1` (stereo unspecified): the cytotoxicity at 70.5 h stood at 9.27%.

Consider `CCc1[nH]ncc1C(=O)N1CCCN(Cc2cnn(C(C)C)c2)CC1`, for which the cytotoxicity at 70.5 h turned out to be 6.52%.

Turning to `CCN(Cc1ccc2c(c1)OCO2)Cc1nc(C)no1`, the cytotoxicity at 70.5 h was -20.4%.

For `CC1COCCN1Cc1nc(-c2cccs2)no1` (stereo unspecified), the cytotoxicity at 70.5 h was -31%.

With `CC(C)(NCC(=O)NCC(F)(F)F)c1ccc2c(c1)OCCO2`, the cytotoxicity at 70.5 h is -16.8%.

Take `CC(C)(C)NC(=O)NC(=O)CNC(C)(C)c1ccc2c(c1)OCCO2`: the cytotoxicity at 70.5 h is -16.2%.

As for `CC(C)(C)c1nnc(CN2CCCC(c3cc(C(N)=O)[nH]n3)C2)o1` (stereo unspecified), the cytotoxicity at 70.5 h is 10.9%.

Turning to `COc1cccc2cc(CNCc3ccnc(N4CCOCC4)c3)oc12`, the cytotoxicity at 70.5 h was found to be 11.7%.

As to `Cn1ccc(C(=O)NC2CCN(c3ncccn3)CC2)cc1=O`, the cytotoxicity at 70.5 h was -15.3%.

With `COc1ccc(-c2noc(CN3CCOCC3C)n2)cc1OC` (stereo unspecified), the cytotoxicity at 70.5 h is -10.5%.

As to `COc1ccc(CNCc2ccnc(N3CCOCC3)c2)c(OC)c1`, the cytotoxicity at 70.5 h is -10.2%.

Take `CC(C)(C)C(=O)NS(=O)(=O)c1ccc(C#N)cc1C(F)(F)F`: the cytotoxicity at 70.5 h is -14.8%.

In the case of `CCc1nccn1C1CCCN(C(=O)CCc2nccs2)C1` (stereo unspecified), the cytotoxicity at 70.5 h was -15.8%.

As to `COc1ccccc1N1CCC(CNCc2cccc(O)c2)C1` (stereo unspecified), the cytotoxicity at 70.5 h was 8.44%.

For `Cc1nn(C)c(Cl)c1C1CCCN1C(=O)c1cc[nH]n1` (stereo unspecified), the cytotoxicity at 70.5 h was -13%.

Take `Cc1nn(C)c(Cl)c1C1CCCN1C(=O)c1ccc2nncn2c1` (stereo unspecified): the cytotoxicity at 70.5 h was found to be 5.97%.

Turning to `CC(NCc1ccccc1Br)c1ccc2[nH]c(=O)[nH]c2c1` (stereo unspecified), the cytotoxicity at 70.5 h is 3.35%.

Regarding `c1cnnc(N2CCCC(NCc3nnc(-c4ccco4)o3)C2)c1` (stereo unspecified), the cytotoxicity at 70.5 h amounted to 3.16%.

As to `CN(C)c1cc(CNC(=O)Nc2ccc(F)cc2)ccn1`, the cytotoxicity at 70.5 h stood at 12.6%.

Consider `COc1ncccc1CNC(=O)c1cccc(C)n1`, for which the cytotoxicity at 70.5 h is 11.1%.

`CC1CCCN(C(=O)c2cccc(CS(C)(=O)=O)c2)C1` (stereo unspecified): the cytotoxicity at 70.5 h worked out at 7.89%.

With `COc1ncccc1NC(=O)c1cccc(C)n1`, the cytotoxicity at 70.5 h is -7.22%.

Consider `COc1ccc(CNCc2ccc(N3CCCCC3)nc2)cc1OC`, for which the cytotoxicity at 70.5 h is -4.42%.

`CCC(NC(=O)c1ccco1)c1ccccc1OCC(=O)N1CCCC1` (stereo unspecified): the cytotoxicity at 70.5 h is -6.16%.

Consider `CCC(NC(=O)CC(F)(F)F)c1ccccc1OCC(=O)N1CCCC1` (stereo unspecified), for which the cytotoxicity at 70.5 h is -7.99%.

For the compound `COc1ncccc1CNC(=O)c1cccnc1O`, the cytotoxicity at 70.5 h is -8.53%.

As to `CCOC1CCCN(C(=O)c2sccc2-n2cnnn2)C1` (stereo unspecified), the cytotoxicity at 70.5 h was -2.74%.

With `O=C(O)c1cc(S(=O)(=O)N2CCOc3ccccc32)ccc1F`, the cytotoxicity at 70.5 h stood at 0.682%.

For the compound `Cc1nn(C)c(N(C)C)c1CNCCCN(C)S(C)(=O)=O`, the cytotoxicity at 70.5 h is -6.18%.

Consider `CS(=O)(=O)Cc1cccc(C(=O)N2CCCC(n3cccn3)C2)c1` (stereo unspecified), for which the cytotoxicity at 70.5 h was 17.8%.

`c1csc(-c2nc(CNC3CCc4ncnn4C3)cs2)c1` (stereo unspecified): the cytotoxicity at 70.5 h is -16.5%.

As to `c1nc2n(n1)CC(NCc1csc(-c3ccsc3)n1)CC2` (stereo unspecified), the cytotoxicity at 70.5 h was -17.5%.

Source of the values: ChEMBL document CHEMBL3507680, “University of Dundee, Gates Library screen for HepG2 cell viability”.
